Test results: ChEMBL document CHEMBL5126503, “Renieramycin-type alkaloids from marine-derived organisms: Synthetic chemistry, biological activity and structural modification” (Eur J Med Chem, 2021)
Converted amounts (≈) assume the structure as drawn.

Tests used:
[1] = system: HCT-116; assay: Cytotoxicity against human HCT-116 cells assessed as cell growth inhibition; assay type: functional, cell-based
[2] = system: ASPC1; assay: Cytotoxicity against human ASPC1 cells assessed as cell growth inhibition; assay type: functional, cell-based
[3] = system: T47D; assay: Cytotoxicity against human T47D cells assessed as cell growth inhibition; assay type: functional, cell-based
[4] = system: QG-56; assay: Cytotoxicity against human QG-56 cells assessed as cell growth inhibition; assay type: functional, cell-based
[5] = system: QG-56; assay: Cytotoxicity against human QG-56 cells assessed as cell growth inhibition incubated for 4 days by Cell counting kit-8 assay; assay type: functional, cell-based; settings: QG-56, 96 h
[6] = system: DU-145; assay: Cytotoxicity against human DU-145 cells assessed as cell growth inhibition incubated for 4 days by Cell counting kit-8 assay; assay type: functional, cell-based; settings: DU-145, 96 h
[7] = system: HCT-116; assay: Cytotoxicity against human HCT-116 cells assessed as cell growth inhibition incubated for 4 days by Cell counting kit-8 assay; assay type: functional, cell-based; settings: HCT-116, 96 h
[8] = system: DU-145; assay: Cytotoxicity against human DU-145 cells assessed as cell growth inhibition; assay type: functional, cell-based
[9] = system: HL-60; assay: Cytotoxicity against human HL-60 cells assessed as cell growth inhibition; assay type: functional, cell-based
[10] = system: A549; assay: Cytotoxicity against human A549 cells assessed as cell growth inhibition; assay type: functional, cell-based
[11] = system: HL-60; assay: Cytotoxicity against human HL-60 cells assessed as cell growth inhibition by MTT assay; assay type: functional, cell-based
[12] = system: A549; assay: Cytotoxicity against human A549 cells assessed as cell growth inhibition by SRB assay; assay type: functional, cell-based
[13] = Cytotoxicity against human HEK293 cells assessed as cell growth inhibition; assay type: toxicity, cell-based
[14] = system: Leishmania amazonensis; assay: Antileishmanial activity against Leishmania amazonensis promastigotes assessed as reduction on parasite growth by green fluorescent protein based microplate reader assay; assay type: functional, organism-based
[15] = system: NCI-H292; assay: Antiproliferative activity against human NCI-H292 cells assessed as cell growth inhibition incubated for 4 hrs by MTT assay; assay type: functional, cell-based; settings: NCI-H292, 4 h

C/C=C(/C)C(=O)OC[C@H]1c2c(c(OC(C)=O)c(C)c3c2OCO3)C[C@H]2[C@H]3C4=C(C[C@@H]([C@H](C#N)N12)N3C)C(=O)C(C)=C(OC)C4=O
IC50 [1]: 34 nM
IC50 [2]: 120 nM
IC50 [3]: 10 nM
IC50 [4]: 79 nM

COC1=C(C)C(=O)C2=C(C1=O)[C@H](CO)N1[C@@H](C#N)[C@@H]3C(=O)c4c(O)c(C)c(OC)c(O)c4[C@H]([C@@H]1C2)N3C
IC50 [5]: 448 nM
IC50 [6]: 448 nM
IC50 [7]: 448 nM

COC1=C(C)C(=O)C2=C(C1=O)[C@H](COC(C)=O)N1[C@@H](C2)CN(C)C[C@@H]1C#N
IC50 [1]: 54 nM
IC50 [8]: 990 nM
IC50 [4]: 220 nM

C/C=C(/C)C(=O)OC[C@H]1C2=C(C[C@H]3[C@H]4C5=C(C(=O)C(C)=C(OC)C5=O)[C@H](O)[C@@H]([C@H](CC(C)=O)N13)N4C)C(=O)C(C)=C(O)C2=O
IC50 [9]: > 100000 nM
IC50 [10]: > 100000 nM

C/C=C(/C)C(=O)OC[C@H]1C2=C(C[C@H]3[C@H]4C5=C(C(=O)C(C)=C(OC)C5=O)[C@H](OCC)[C@@H]([C@H](CC(C)=O)N13)N4C)C(=O)C(C)=C(O)C2=O
IC50 [9]: > 100000 nM
IC50 [10]: > 100000 nM

C/C=C(/C)C(=O)OC[C@H]1C2=C(C[C@H]3[C@H]4C5=C(C[C@@H]([C@H](CC(C)=O)N13)N4C)C(=O)C(C)=C(OC)C5=O)C(=O)C(C)=C(OC)C2=O
IC50 [11]: > 100000 nM
IC50 [12]: > 100000 nM
IC50 [13]: 7100 nM

COC1=C(C)C(=O)C2=C(C1=O)[C@H]1CN(Cc3ccccc3)[C@@H](C#N)[C@H](C2)N1C
IC50 [5]: 17 nM
IC50 [7]: 17 nM

COC1=C(C)C(=O)C2=C(C1=O)[C@@H]1[C@@H]3CC4=C(C(=O)C(OC)=C(C)C4=O)[C@H](CO)N3[C@@H](CC(C)=O)[C@H](C2=O)N1C
IC50 [9]: 2500 nM
IC50 [10]: 6200 nM
IC50 [13]: 1000 nM

C/C=C(/C)C(=O)OC[C@H]1C2=C(C[C@H]3[C@H]4C5=C(C(=O)C(C)=C(OC)C5=O)[C@H](O)[C@@H](CN13)N4C)C(=O)C(C)=C(OC)C2=O
IC50 [14]: 0.2 µg/mL (≈ 0.353 µM)

COC1=C(C)C(=O)C2=C(C1=O)[C@@H]1[C@@H]3CC4=C(C(=O)C(OC)=C(C)C4=O)[C@H](COC(=O)CNC(=O)OC(C)(C)C)N3[C@@H](C#N)[C@H](C2)N1C
IC50 [15]: 3.56 nM

C/C=C(/C)C(=O)OC[C@H]1c2c(c(O)c(C)c3c2OCO3)C[C@H]2[C@H]3C4=C(C[C@@H]([C@H](C#N)N12)N3C)C(=O)C(C)=C(OC)C4=O
IC50 [1]: 39 nM
IC50 [2]: 98 nM
IC50 [3]: 4.7 nM
IC50 [4]: 77 nM
